# What was measured:
# KBM-5 cells = experiment: Cytotoxicity (MTT) assay with TNF and chemotherapeutic drugs; type: cell-based, human; settings: 50 μM guggulsterone, 72 hours
# Description: Cytotoxicity Assay: Cytotoxicity was assayed by the modified tetrazolium salt 3-(4-5-dimethylthiozol-2-yl)2-5-diphenyl-tetrazolium bromide (MTT) assay (Bharti et al., 2003). Briefly, cells (5000 cells/well) were incubated in the presence or absence of the indicated test sample in a final volume of 0.1 ml for 72 hours at 37° C. Thereafter, 0.025 ml of MTT solution (5 mg/ml in PBS) was added to each well. After a 2 hour incubation at 37° C., 0.1 ml of the extraction buffer (20% SDS, 50% dimethylformamide) was added. After an overnight incubation at 37° C., the optical densities at 570 nm were measured using a 96-well multiscanner autoreader (Dynatech MR5000), with the extraction buffer as blank. The percent cytotoxicity was determined as follows: (1−(A570 of test sample)/(A570 of control sample)×100%.
# IκBα = experiment: TNF-dependent IκBα degradation and phosphorylation, Western blot; type: cell-based, human; settings: H1299; 50 μM, 4 hours, 0.1 nM TNF
# Description: Western Blot Analysis: To determine the effect of guggulsterone on TNF-dependent IκBα phosphorylation, IκBα degradation, p65 translocation and p65 phosphorylation, cytoplasmic extracts were prepared as previously described (Majumdar et al., 2001) from H1299 (2×10^6/ml) pretreated with 50 μM guggulsterone for 4 h and then exposed to 0.1 nM TNF for various times. Thirty micrograms of cytoplasmic protein was resolved on 10% SDS-PAGE gel, transferred to a nitrocellulose membrane, blocked with 5% non-fat milk, and probed with specific antibody against IκBα, posphorylated IκBα, p65 and phosphorylated p65. To determine the expression of cyclin D1, COX-2, MMP-9, clAP-1, xlAP, TRAF1, Bcl-2, Bfl-1, cFLIP, and survivin, whole-cell extracts were prepared from treated cells (2×10^6 cells in 2 ml medium), 30-50 μg protein was resolved on SDS-PAGE gel and probed by Western blot with specific antibodies as per manufacturer's recommended protocol. The blots were washed, exposed to HRP-conjugated secondary antibodies for 1 hour, and finally detected by ECL reagent (Amersham Pharmacia Biotech.). The bands were quantitated using a Personal Densitometer Scan v1.30 using IMAGEQUANT™ software version 3.3 (Molecular Dynamics).
# RAW 264.7 cells = experiment: Osteoclast differentiation assay, RANKL-induced; type: cell-based, mouse; settings: RANKL 5 nM
# Description: (§1) Osteoclast differentiation assay: […] cells were cultured in 24-well dishes at a density of 1×10^4 cells per well and were allowed to adhere overnight. Medium was then replaced and the cells were treated with 5 nM (˜100 ng/ml) RANKL. At different days, cultures were stained for TRAP expression using an acid phosphatase kit, and the total number of TRAP-positive multinucleated osteoclasts (>3 nuclei) per well were counted.
# as §1, with “assay.” for “assay:”, “(100” for “(˜100”, “day 5,” for “different days,”, “expression as described (Shevde et al., 2000)” for “expression”, “(3” for “(>3”
smiles,measurement,setting,value
"CC=C1C(=O)C[C@H]2[C@@H]3CCC4=CC(=O)CC[C@]4(C)[C@H]3CC[C@]12C [guggulsterone, 4,17(20)-pregnadiene-3,16-dione]","cytotoxic effects of TNF, paclitaxel and doxorubicin in combination with guggulsterone",KBM-5 cells,"enhanced the cytotoxic effects of TNF, paclitaxel and doxorubicin"
same,TNF-induced IκBα degradation,IκBα,TNF had no effect on IκBα degradation
same,TNF-induced IκBα phosphorylation,IκBα,almost completely suppressed IκBα phosphorylation
same,number of RANKL-induced osteoclasts,"RAW 264.7 cells; 5 days, TRAP",the number of osteoclasts decreased with increasing concentration of GS
same,"RANKL-induced osteoclastogenesis, GS added 24 h after RANKL","RAW 264.7 cells; GS 5 μM, 5 days",inhibited osteoclastogenesis even when the cells were exposed 24 h after the RANKL treatment
same,"RANKL-induced osteoclastogenesis, GS added 3 days after RANKL","RAW 264.7 cells; GS 5 μM, 5 days",the inhibitory effect decreased significantly
same,RANKL-induced osteoclastogenesis (Example 1),"RAW 264.7 cells; guggulsterone 5 μM, TRAP staining",inhibits RANKL-induced NF-κB activation and osteoclastogenesis
